Test results: US11572399B2, “Long-acting GIP peptide analogues” (University of Copenhagen, priority 2017, dated 2023)
Peptide text beside a SMILES is read from it. * marks the point of attachment. C16 diacid = O=C(O)CCCCCCCCCCCCCCC(=O)*

Tests used:
human GIP receptor [1] = biological target: T1, human GIP receptor (Homo sapiens, UniProt P48546); assay: cAMP accumulation assay, agonism (ligand alone); assay type: cell-based; details: COS-7 cells, Table 1; for Emax: COS-7, intrinsic cAMP activity
T1 construct: host or cells: COS-7, transient transfection (calcium phosphate), cDNA in pCMV-Script
T1 sequence (P48546 22-466): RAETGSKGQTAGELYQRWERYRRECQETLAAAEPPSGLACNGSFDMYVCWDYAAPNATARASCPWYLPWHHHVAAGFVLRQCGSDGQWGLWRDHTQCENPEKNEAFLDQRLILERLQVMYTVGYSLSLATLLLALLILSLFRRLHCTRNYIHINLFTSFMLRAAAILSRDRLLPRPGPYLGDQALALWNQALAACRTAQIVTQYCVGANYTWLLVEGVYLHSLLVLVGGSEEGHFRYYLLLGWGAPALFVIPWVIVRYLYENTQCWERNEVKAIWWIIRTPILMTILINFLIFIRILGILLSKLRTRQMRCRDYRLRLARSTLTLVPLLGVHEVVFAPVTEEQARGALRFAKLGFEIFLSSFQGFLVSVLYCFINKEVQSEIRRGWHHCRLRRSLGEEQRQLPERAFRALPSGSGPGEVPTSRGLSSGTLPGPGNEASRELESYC

[2] = Elimination half-life (T1/2) estimated in pigs, subcutaneous, RIA; assay type: in vivo; details: pig; for half-life: plasma, sc, pigs, subcutaneous 1-10 nmol/kg
Description: LYH/LYD strain pigs or mini-pigs were housed in the animal facility at the Faculty of Health and Medical Sciences.
A pig was subcutaneously administered one of the lipidated GIP(3-30)NH2 analogs (compound AT117) (1-10 nmol/kg, total volume 2-6 mL) after which 10-18 blood samples were collected before and up to 57 hours post subcutaneous administration) from a central venous catheter. The catheter was flushed with saline and heparin between samples. Blood was collected into cold EDTA tubes, centrifuged and plasma was kept at −20° C. pending analyses. When experiments are completed, the animals will be killed.
Concentrations of the lipidated GIP(3-30)NH2 or GIP(5-30)NH2 analogues in blood samples from pigs were analysed by RIA. Analogues' immunoreactivity was determined using antiserum Ab95234, Ab95235, Ab95236, a polyclonal in-house antibody raised in rabbits specific for either the mid region of GIP(1-30)NH2 or amidated C-terminus of GIP(3-30)NH2.

human GIP receptor [3] = biological target: T1, human GIP receptor; assay: cAMP accumulation assay, antagonism of a GIP-mediated cAMP response (50-80% of max); assay type: cell-based; details: for cAMP - antagonisme fold (paired): fold vs GIP(3-30)NH2, Table 3b; for IC50: transiently transfected COS-7 cells, Table 1 and text, read-out: cAMP antagonism nM (IC50, antagonistic potency); for Fold change of IC50 versus GIP(5-30)NH2: fold change of IC50 from GIP(5-30)NH2
Description: The day after, the cells were washed twice with Hepes buffered saline (HBS) buffer and incubated with HBS and 1 mM 3-isobutyl-1-methylxanthine (IBMX) for 30 min at 37° C. […] The HitHunter™ cAMP XS assay (DiscoveRx) was carried out according to the manufacturer's instructions.

human GIP receptor [4] = biological target: T1, human GIP receptor; assay: 125I-human GIP competition binding assay, in the presence and absence of 2% HSA; details: for Binding fold (paired): fold decrease in affinity compared to GIP(3-30)NH2; for Fold change in affinity, IC50 (plus HSA)/IC50 (minus HSA): presence vs absence of 2% HSA, proxy for albumin binding; for Fold change HSA (2%)/Casein (0.1%): IC50 (plus HSA)/IC50 (minus HSA); for Ki: absence of HSA; for Binding (+/−HSA) Fold: fold change +HSA/−HSA;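 on all read-outs here: nonspecific binding taken as radioligand bound to untransfected cells, IC50 obtained from nonlinear regression fits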
[5] = 0.1% casein, no HSA, Table 3b, read-out: Binding logIC50 0.1% casein (converted)
[6] = Table 3b, initial data, read-out: Binding IC50
[7] = heterologous competition binding, transiently transfected COS-7 cells expressing the human GIP receptor, read-out: Binding
[8] = binding in 0.1% casein (absence of HSA), log value, read-out: logIC50 0.1% casein (converted)
[9] = binding in presence of 2% HSA, read-out: logIC50 2% HSA (converted)

`CC[C@H](C)[C@H](NC(=O)[C@H](CO)NC(=O)[C@H](Cc1ccc(O)cc1)NC(=O)[C@H](CC(=O)O)NC(=O)[C@H](CO)NC(=O)[C@@H](NC(=O)[C@H](Cc1ccccc1)NC(=O)[C@@H](NC(=O)CNC(=O)[C@@H](N)CCC(=O)O)[C@@H](C)O)[C@@H](C)CC)C(=O)N[C@@H](C)C(=O)N[C@@H](CCSC)C(=O)N[C@@H](CC(=O)O)C(=O)N[C@@H](CCCNC(=N)N)C(=O)N[C@H](C(=O)N[C@@H](CCCCNC(=O)CCCCCCCCCCCCCCC(=O)O)C(=O)N[C@@H](CCC(N)=O)C(=O)N[C@@H](CCC(N)=O)C(=O)N[C@@H](CC(=O)O)C(=O)N[C@@H](Cc1ccccc1)C(=O)N[C@H](C(=O)N[C@@H](CC(N)=O)C(=O)N[C@@H](Cc1c[nH]c2ccccc12)C(=O)N[C@@H](CC(C)C)C(=O)N[C@@H](CC(C)C)C(=O)N[C@@H](C)C(=O)N[C@@H](CCC(N)=O)C(=O)N[C@@H](CCCNC(=N)N)C(N)=O)C(C)C)[C@@H](C)CC` [AT159, [hGIP(3-30)NH2[K16R; H18K; K30R]-C16diacid/18]] (H-EGTFISDYSIAMDRIK(C16 diacid)QQDFVNWLLAQR-NH2; N-terminus assumed) showed an Emax (human GIP receptor [1]) of 6%, an EC50 (human GIP receptor [1]; read-out: cAMP agonism nM (EC50)) of 2 nM and a half-life [2] of 6 h. The “cAMP - antagonisme fold (paired)” value (human GIP receptor [3]) was 0.1 fold, the IC50 (human GIP receptor [3]) was 6 nM and the IC50 (human GIP receptor [4]; [5]) was 25 nM. For the same molecule, the IC50 (human GIP receptor [4]; [6]) was 25 nM, the “Binding fold (paired)” value (human GIP receptor [4]; Table 3b) was 3 fold and the IC50 (human GIP receptor [4]; [7]) was 18 nM. For the same molecule, the “Fold change in affinity, IC50 (plus HSA)/IC50 (minus HSA)” value (“Fold change in affinity … (minus HSA)” below) (human GIP receptor [4]) was 0.8 fold.

With `CC[C@H](C)[C@H](NC(=O)[C@H](CCCCN)NC(=O)[C@H](CC(=O)O)NC(=O)[C@H](CCSC)NC(=O)[C@H](CCCCNC(=O)CCCCCCCCCCCCCCC(=O)O)NC(=O)[C@@H](NC(=O)[C@H](CO)NC(=O)[C@H](Cc1ccc(O)cc1)NC(=O)[C@H](CC(=O)O)NC(=O)[C@H](CO)NC(=O)[C@@H](NC(=O)[C@H](Cc1ccccc1)NC(=O)[C@@H](N)[C@@H](C)O)[C@@H](C)CC)[C@@H](C)CC)C(=O)N[C@@H](Cc1c[nH]cn1)C(=O)N[C@@H](CCC(N)=O)C(=O)N[C@@H](CCC(N)=O)C(=O)N[C@@H](CC(=O)O)C(=O)N[C@@H](Cc1ccccc1)C(=O)N[C@H](C(=O)N[C@@H](CC(N)=O)C(=O)N[C@@H](Cc1c[nH]c2ccccc12)C(=O)N[C@@H](CC(C)C)C(=O)N[C@@H](CC(C)C)C(=O)N[C@@H](C)C(=O)N[C@@H](CCC(N)=O)C(=O)N[C@@H](CCCCN)C(N)=O)C(C)C` [AT175, [hGIP(5-30)NH2[A13K]-C16diacid/13]] (H-TFISDYSIK(C16 diacid)MDKIHQQDFVNWLLAQK-NH2; N-terminus assumed) the Emax (human GIP receptor [1]) was 0%, the half-life [2] was 6 h and the “T½” value ([2]; subcutaneous) was 6 h. For the same molecule, the “Ability to antagonize the GIP-mediated cAMP response (in words)” value (human GIP receptor [3]) was “highest antagonistic potencies”, the “Fold change of IC50 versus GIP(5-30)NH2” value (human GIP receptor [3]) was 0.5 and the “Fold change HSA (2%)/Casein (0.1%)” value (human GIP receptor [4]) was 7.8. For the same molecule, the Ki (human GIP receptor [4]) was 53 nM, the IC50 (human GIP receptor [4]; [8]) was 79.4 nM and the IC50 (human GIP receptor [4]; [9]) was 562 nM. For the same molecule, the “Binding (+/−HSA) Fold” value (human GIP receptor [4]) was 9.4 and the “Fold change in affinity … (minus HSA)” value (human GIP receptor [4]) was 7.8 fold.

With `CCCCCCCCCCCC(=O)N[C@H](C(=O)N[C@@H](Cc1ccccc1)C(=O)N[C@H](C(=O)N[C@@H](CO)C(=O)N[C@@H](CC(=O)O)C(=O)N[C@@H](Cc1ccc(O)cc1)C(=O)N[C@@H](CO)C(=O)N[C@H](C(=O)N[C@@H](C)C(=O)N[C@@H](CCSC)C(=O)N[C@@H](CC(=O)O)C(=O)N[C@@H](CCCCN)C(=O)N[C@H](C(=O)N[C@@H](Cc1c[nH]cn1)C(=O)N[C@@H](CCC(N)=O)C(=O)N[C@@H](CCC(N)=O)C(=O)N[C@@H](CC(=O)O)C(=O)N[C@@H](Cc1ccccc1)C(=O)N[C@H](C(=O)N[C@@H](CC(N)=O)C(=O)N[C@@H](Cc1c[nH]c2ccccc12)C(=O)N[C@@H](CC(C)C)C(=O)N[C@@H](CC(C)C)C(=O)N[C@@H](C)C(=O)N[C@@H](CCC(N)=O)C(=O)N[C@@H](CCCCN)C(N)=O)C(C)C)[C@@H](C)CC)[C@@H](C)CC)[C@@H](C)CC)[C@@H](C)O` [AT118, [hGIP(5-30)NH2—C12/5]] the Emax (human GIP receptor [1]) was 0%, the “Ability to antagonize the GIP-mediated cAMP response (in words)” value (human GIP receptor [3]) was “high potent antagonists” and the IC50 (human GIP receptor [3]) was 29 nM. For the same molecule, the “Affinity compared to GIP(3-30)NH2 (in words)” value (human GIP receptor [4]) was “affinities in the same range as GIP(3-30)NH2”, the “Fold change HSA (2%)/Casein (0.1%)” value (human GIP receptor [4]) was 7.7 and the IC50 (human GIP receptor [4]; [8]) was 126 nM. For the same molecule, the IC50 (human GIP receptor [4]; [9]) was 881 nM and the IC50 (human GIP receptor [4]; [7]) was 102 nM.

With `CC[C@H](C)[C@H](NC(=O)[C@H](CO)NC(=O)[C@H](Cc1ccc(O)cc1)NC(=O)[C@H](CC(=O)O)NC(=O)[C@H](CO)NC(=O)[C@@H](NC(=O)[C@H](Cc1ccccc1)NC(=O)[C@@H](NC(=O)CNC(=O)[C@@H](N)CCC(=O)O)[C@@H](C)O)[C@@H](C)CC)C(=O)N[C@@H](C)C(=O)N[C@@H](CCSC)C(=O)N[C@@H](CC(=O)O)C(=O)N[C@@H](CCCCN)C(=O)N[C@H](C(=O)N[C@@H](CCCCNC(=O)CCCCCCCCCCCCCCC(=O)O)C(=O)N[C@@H](CCC(N)=O)C(=O)N[C@@H](CCC(N)=O)C(=O)N[C@@H](CC(=O)O)C(=O)N[C@@H](Cc1ccccc1)C(=O)N[C@H](C(=O)N[C@@H](CC(N)=O)C(=O)N[C@@H](Cc1c[nH]c2ccccc12)C(=O)N[C@@H](CC(C)C)C(=O)N[C@@H](CC(C)C)C(=O)N[C@@H](C)C(=O)N[C@@H](CCC(N)=O)C(=O)N[C@@H](CCCCN)C(N)=O)C(C)C)[C@@H](C)CC` [AT158, [hGIP(3-30)NH2[H18K]-C16diacid/18]] (H-EGTFISDYSIAMDKIK(C16 diacid)QQDFVNWLLAQK-NH2; N-terminus assumed) the Emax (human GIP receptor [1]) was 6%, the “cAMP - antagonisme fold (paired)” value (human GIP receptor [3]) was 0.1 fold and the IC50 (human GIP receptor [3]) was 5 nM. For the same molecule, the IC50 (human GIP receptor [4]; [5]) was 7.9 nM, the IC50 (human GIP receptor [4]; 2% HSA, Table 3b, read-out: Binding logIC50 2% HSA (converted)) was 16 nM and the IC50 (human GIP receptor [4]; [6]) was 7.9 nM. For the same molecule, the “Binding fold (paired)” value (human GIP receptor [4]; Table 3b) was 1 fold and the “Fold change in affinity … (minus HSA)” value (human GIP receptor [4]) was 2.0 fold.

In the case of `CC[C@H](C)[C@H](NC(=O)[C@H](CO)NC(=O)[C@H](Cc1ccc(O)cc1)NC(=O)[C@H](CC(=O)O)NC(=O)[C@H](CO)NC(=O)[C@@H](NC(=O)[C@H](Cc1ccccc1)NC(=O)[C@@H](N)[C@@H](C)O)[C@@H](C)CC)C(=O)N[C@@H](C)C(=O)N[C@@H](CCSC)C(=O)N[C@@H](CC(=O)O)C(=O)N[C@@H](CCCCN)C(=O)N[C@H](C(=O)N[C@@H](Cc1c[nH]cn1)C(=O)N[C@@H](CCC(N)=O)C(=O)N[C@@H](CCC(N)=O)C(=O)N[C@@H](CC(=O)O)C(=O)N[C@@H](Cc1ccccc1)C(=O)N[C@H](C(=O)N[C@@H](CCCCNC(=O)CCCCCCCCCCCCCCC(=O)O)C(=O)N[C@@H](Cc1c[nH]c2ccccc12)C(=O)N[C@@H](CC(C)C)C(=O)N[C@@H](CC(C)C)C(=O)N[C@@H](C)C(=O)N[C@@H](CCC(N)=O)C(=O)N[C@@H](CCCCN)C(N)=O)C(C)C)[C@@H](C)CC` [AT184, [hGIP(5-30)NH2[N24K]-C16diacid/24]] (H-TFISDYSIAMDKIHQQDFVK(C16 diacid)WLLAQK-NH2; N-terminus assumed), the Emax (human GIP receptor [1]) is reported as 0%, the “Fold change of IC50 versus GIP(5-30)NH2” value (human GIP receptor [3]) is reported as 3.9 and the “Fold change HSA (2%)/Casein (0.1%)” value (human GIP receptor [4]) is reported as 1.6. For the same molecule, the Ki (human GIP receptor [4]) was 224 nM and the “Binding (+/−HSA) Fold” value (human GIP receptor [4]) was 3.9.
